In the NIST ThermoML archive (doi:10.1007/s10765-014-1740-z) one finds Triple point temperature data, which are given here for one compound.

For this data set the following is noted: Crystal; visual observation.

± gives the expanded uncertainty stated by the source.

Consider `O=c1cc(-c2ccccc2)oc2cc(O)c(O)c(O)c12` [baicalein], for which the Triple point temperature came out at 537 ± 10 K.
